These results are taken from patent US20140105829A1, “THERAPEUTIC NANOEMULSION FORMULATION FOR THE TARGETED DELIVERY OF DOCETAXEL AND METHODS OF MAKING AND USING THE SAME” (Nemucore Medical Innovations, Inc., priority 2012, published 2014).

The subject of data set [1] is subcutaneous SKOV3 tumors. Details: species or system Nu/Nu mice. The settings on record: mouse, in vivo, iv. The text has this:
Three female Nu/Nu mice (Charles River Laboratories, Cambridge, Mass.) each weighing approximately 20 g and bearing subcutaneous SKOV3 tumors (human ovary cancer cells, American Type Culture Collection (ATCC), Manassas, Va.) […], were used as test subjects. The first mouse was intravenously injected with gadopentetic acid containing a 0.072 mmol/kg dose of Gd-DTPA-PE (Magnevist™). The second mouse was intravenously injected with a non-targeted Gd-labeled nanoemulsion formulation of the present disclosure containing a 0.072 mmol/kg dose of Gd-DTPA-PE. The third mouse was intravenously injected with a folate receptor-targeted Gd-labeled nanoemulsion formulation of the present disclosure containing a 0.072 mmol/kg dose of the gadolinium-based MRI contrasting agent Gd-DTPA-PE. All three mice were full body scanned and imaged using a Bruker Biospec 20/70 MRI machine over a period of 24 hr.

Another data set concerns SKOV3 cells. Briefly: MTT cytotoxicity assay, SKOV3. The data set is classed as cell-based, human. The settings on record: 72 hr treatment, mean±SD, n=8. As for the experimental part: (§1) A tetrazolium (MTT) assay was performed, which measures the activity of cellular enzymes that reduces the MTT dye to insoluble formazan. SKOV3 and SKOV3TR cells were treated with corresponding test nanoemulsions or control solutions as indicated below in Table V. Polyethylenimine at 50 μg/ml was used as a positive control for cytotoxicity. […] After the completion of treatment, cells were incubated with MTT reagent (50 μg/well) for 2 hr, the resulting formazan crystals were dissolved in dimethyl sulfoxide ([…]) and measured at 570 nm in the Plate reader (Synergy HT, Biotek Instruments, Winooski, Vt.).
(§2) All IC50 values were obtained by analyzing the MTT assays results using Graphpad Prism 5 scientific data analysis software.

The nature of data set [2]: Dose range finding plasma pharmacokinetic study. The data set is classed as in vivo. The settings on record: CD-1 mice, iv; for AUC0-∞ / AUClast / Cl / Cmax / MRT / Tmax / Vd / t1/2: plasma docetaxel. The protocol: A dose range finding (DRF) study was conducted to determine the pharmacokinetic profile of folate receptor-targeted nanoemulsion formulations according to the disclosure administered to CD-1 mice at dose levels ranging from 1 mg/kg to 10 mg/kg. […] Blood was collected at 5 min, 30 min, 1 hr, 2 hr, 4 hr, 6 hr, 8 hr, 12 hr, and 24 hr after injection. Docetaxel concentration in the plasma was measured using a liquid chromatography-mass spectrometer (LC-MS/MS).
Pharmacokinetic parameters were calculated by non-compartmental analysis using Phoenix WinNonlin 6.2 version.

In a further data set the test system is SKOV3TR cells. Briefly: MTT cytotoxicity assay, SKOV3TR. The data set is classed as cell-based, human. The settings on record: 72 hr treatment, mean±SD, n=8, Pgp-expressing multidrug resistant cells. As for the experimental part:
In order to determine if the nanoemulsion formulations according to the disclosure produce a cytotoxic effect, the following experiments were done on SKOV3 and SKOV3TR cells. SKOV3TR cells express P-glycoprotein (Pgp), which produces chemotherapeutic agent efflux out of the cell and is associated with multidrug resistant cancer cells.
as §1, §2

[3] abbreviates: 1 mg/kg docetaxel as folate receptor-targeted nanoemulsion formulation.
[4] abbreviates: 5 mg/kg docetaxel as folate receptor-targeted nanoemulsion formulation.
The mark [5] stands for this setting: 10 mg/kg docetaxel as folate receptor-targeted nanoemulsion formulation.

As to `CNC[C@H](O)[C@@H](O)[C@H](O)[C@H](O)CO.CNC[C@H](O)[C@@H](O)[C@H](O)[C@H](O)CO.O=C([O-])CN(CCN(CC(=O)[O-])CC(=O)O)CCN(CC(=O)[O-])CC(=O)O.[Gd+3]` [Magnevist, gadopentetic acid], the “time by which tumor signal cleared to near baseline” value in data set [1] is at most 6 h.

As for docetaxel [Docetaxel in solution], the IC50 with SKOV3 cells amounted to 1 ± 1.3 nM. Besides, in data set [2] (setting [3]), the “AUC0-∞” value was determined as 475 ± 34 ng·h/mL, the “AUClast” value was 789 ± 667 ng·h/mL, the “Cl” value came to 35.17 ± 2.55 mL/min/kg and the “Cmax” value came to 2125 ± 1181 ng/mL. In addition, in data set [2] (setting [3]), the “MRT” value was 1.53 ± 0.3 h, the “Tmax” value was 4.98 min, the distribution volume (Vd) stood at 13.275 ± 7.029 L/kg and the “t1/2” value is on record as 4.29 ± 2 h. Besides, the “dose dependence of plasma docetaxel pharmacokinetics” value in data set [2] (1 mg/kg to 10 mg/kg, folate receptor-targeted nanoemulsion formulation) was “linear pharmacokinetics from 1 mg/kg to 5 mg/kg”. In data set [2] (setting [4]), the “AUC0-∞” value worked out at 19095 ± 24050 ng·h/mL, the “AUClast” value turned out to be 19026 ± 24077 ng·h/mL, the “Cl” value turned out to be 15.4 ± 16.77 mL/min/kg and the highest concentration (Cmax) was 38267 ± 31757 ng/mL. Also, in data set [2] (setting [4]), the mean residence time MRT came out at 2.25 ± 0.5 h, the “Tmax” value was found to be 4.98 min, the “Vd” value was found to be 9.074 ± 12.083 L/kg and the “t1/2” value was determined as 4.9 ± 2.6 h. In addition, in data set [2] (setting [5]), the “AUC0-∞” value was 16719 ± 28251 ng·h/mL, the “AUClast” value amounted to 16653 ± 28251 ng·h/mL, the “Cl” value is 16 ± 12.5 mL/min/kg and the “Cmax” value was determined as 52229 ± 28251 ng/mL. Besides, in data set [2] (setting [5]), the “MRT” value is listed as 2.6 ± 1 h, the time to peak (Tmax) came to 4.98 min, the distribution volume (Vd) is 5.801 ± 5.151 L/kg and the “t1/2” value came to 3.7 ± 1 h. Moreover, the IC50 in the data set on SKOV3TR cells was determined as 27000 nM.
